What was measured:
[1] = tested on: IP L1210; assay: Activity against IP-implanted L1210 leukemia sensitive to cisplatin, 60 day test (Table 4); type: in vivo, Female CD2Fl mice
Procedure: (§1) Biological properties of the compounds of the present invention were determined following the protocol described in Cancer Chemotherapy Reports, Vol. 3, No. 3, 1972 which report is incorporated herein by reference.
(§2) Other known mechanisms of resistance for other classes of agents, such as gene amplification or target enzyme change or amplication, also need to be explored. The experiments summarized in Table 3 were conducted at the same time against both sublines using the same drug preparations. […] These experiments were repeated in a second laboratory as documented in Table 4. However, in these experiments the animals were held for 60 rather than 30 days to evaluate whether or not long-term survivors are produced after drug treatment in a more challenging setting.
This experiment (A8-00005 3LE31) was conducted at the Southern Research Institute, Birmingham, Ala. under the supervision of Dr. Daniel Griswold. The protocols were the same as those published previously (Geran et al., Cancer Chemotherapy Reports 3: No. 2, 1972 [Attachment 11]). 10^5 cells were implanted intraperitoneally in CD2Fl male mice on Day 0. Drug treatments were given intraperitoneally as single injections at the doses indicated on Days 1, 5 and 9 after tumor implantation. The diluent was saline except for NSC-271674 where 5% sodium bicarbonate was used. All drugs were prepared fresh on the day of injection, and all were administered in solution. Median survival times for both control and drug-treated mice were determined and expressed as a percentage (% T/C). Body weights were determined on Day 5 and expressed as a weight difference (body weight of the drug-treated animals minus that of the control animals in grams) (T-C). The diluent control animals lived a median of 8.4 days and gained 1.9 grams by Day 5 in this experiment. All animals, including Day 30 survivors, were used in the calculation of median survival times. The log10 change in tumor burden refers to the net log change in viable tumor cell population at the end of therapy (Rx) as compared to the start of therapy; e.g., a […] means that there was a […] and a 3 log change means there was a 1000-fold increase in tumor burden at the end of therapy. The tumor burden at the start of therapy was about 6.1×10^5 cells in this experiment.
(§3) These experiments (23-00081 3LE31 and 23-00003 3DP3l) were conducted concurrently at the Mason Research Institute, Worcester, MA under the supervision of Dr. William Cobb. See Table 4 for experimental details. The diluent control animals bearing L1210 leukemia lived a median of 8.3 days and gained 1.6 grams by Day 5. […] Female CD2Fl mice were used for these experiments.

[2] = tested on: IP L1210/Cisplatin; assay: Activity against IP-implanted L1210/Cisplatin leukemia resistant to cisplatin, 60 day test (Table 4); type: in vivo, Female CD2Fl mice
Procedure: as §1
as §2, with “setting. […]” for “setting.”
as §3

[3] = tested on: SC Implanted L1210 Leukemia; assay: Activity against SC implanted L1210 leukemia following intravenous administration, once daily Days 1-5 (Table 5); type: in vivo, CD2Fl male mice; details: for Optimal Dose: IV once daily Days 1-5
Procedure: as §1
In another type of experiment the same platinum complexes were directly compared against the SC implanted L1210 following intravenous administration (Table 5).
This experiment (A8-00004 3LE32) was conducted at the Southern Research Institute, Birmingham, Ala. under the supervision of Dr. Daniel Griswold. The protocols were the same as those published previously (Attachment 11). 10^6 cells were implanted subcutaneously in CD2Fl male mice on Day 0. Drug treatments were given intravenously once daily at the doses indicated on Days 1-5 after tumor implantation. The dosage range tested included the highest and lowest doses indicated in the Table as well as intermediate values which were determined by multiplying each dose in turn by 0.5 starting with the highest dose. The diluent was saline except for NSC-271674 for which 5% sodium bicarbonate was used. All drugs were prepared fresh on the day of injection, and all were administered in solution. Median survival times for both control and drug-treated mice were determined and expressed as a percentage (% T/C). Body weights were determined on Day 5 and expressed as a weight difference (body weight of the drug-treated animals minus that of the control animals in grams) (T-C).

[4] = tested on: L1210 and L1210/Cisplatin leukemia; assay: Total number of long-term survivors in Tables 2-4; type: in vivo, CD2Fl mice; details: for Total number of long-term survivors: Tables 2-4 summed
From the text: If one summarizes the data in Tables 2-4 by totalling the number of long-term survivors, unexpected differences among the isomers become apparent. For example, the trans l compound produced 30 long-term survivors.

[5] = tested on: IP L1210 leukemia; assay: Mouse optimal (highest tolerated) dose, IP L1210 leukemia, Days 1, 5 and 9 schedule (Table 7); type: in vivo
From the text: *IP L1210 leukemia, Days 1, 5 and 9 schedule. Highest tolerated dose in a
least 2 of 3 experiments (i.e,. animal weight difference (testcontrol)

Compound | 60 Day Survivors/Total ([1]; 2 mg/kg/dose) | Body Weight Difference ([1]; 2 mg/kg/dose) [Grams] | Median % T/C ([1]; 2 mg/kg/dose) [%] | 60 Day Survivors/Total ([1]; 4 mg/kg/dose) | Body Weight Difference ([1]; 4 mg/kg/dose) [Grams] | Median % T/C ([1]; 4 mg/kg/dose) [%] | 60 Day Survivors/Total ([1]; 8 mg/kg/dose) | Median % T/C ([1]; 8 mg/kg/dose) [%] | 60 Day Survivors/Total ([1]; 16 mg/kg/dose) | Body Weight Difference ([1]; 16 mg/kg/dose) [Grams] | Median % T/C ([1]; 16 mg/kg/dose) [%] | 60 Day Survivors/Total ([2]; 2 mg/kg/dose) | Body Weight Difference ([2]; 2 mg/kg/dose) [Grams] | Median % T/C ([2]; 2 mg/kg/dose) [%] | 60 Day Survivors/Total ([2]; 4 mg/kg/dose) | Body Weight Difference ([2]; 4 mg/kg/dose) [Grams] | Median % T/C ([2]; 4 mg/kg/dose) [%] | 60 Day Survivors/Total ([2]; 8 mg/kg/dose) | Body Weight Difference ([2]; 8 mg/kg/dose) [Grams] | Median % T/C ([2]; 8 mg/kg/dose) [%] | further results
Tetrachloro-cis-1,2-cyclohexanediamine platinum (IV) | 0/10 | -0.9 | 143 | 2/10 | -0.9 | 250 | 2/10 | 313 | 0/10 | -5.6 | 98 | 0/10 | -0.3 | 121 | 0/10 | 0.0 | 130 | 1/10 | -2.7 | 191 | 60 Day Survivors/Total ([1]; 32 mg/kg/dose): 0/10; Body Weight Difference ([1]; 32 mg/kg/dose): -5.6 Grams; Median % T/C ([1]; 32 mg/kg/dose): Toxic; 60 Day Survivors/Total ([2]; 16 mg/kg/dose): 0/10; Body Weight Difference ([2]; 16 mg/kg/dose): -5.4 Grams; Median % T/C ([2]; 16 mg/kg/dose): Toxic; 60 Day Survivors/Total ([2]; 32 mg/kg/dose): 0/10; Body Weight Difference ([2]; 32 mg/kg/dose): -5.1 Grams; Median % T/C ([2]; 32 mg/kg/dose): Toxic; 60-day (long term) survivors ([2]; L1210/cisplatin, tolerated doses): only one long term survivor; Body Weight Difference ([3]; 5 mg/kg/inj IV): -3.3 Grams; Median % T/C ([3]; 5 mg/kg/inj IV): 133%; Median Survival Time ([3]; 5 mg/kg/inj IV): 13.7 days; Optimal Dose [3]: 5.0 mg/kg/inj; Total number of long-term survivors [4]: 13; Relative biological activity ([4]; mouse, in vivo): relatively lower biological activity; Mouse Optimal Dose (highest tolerated dose in at least 2 of 3 experiments) [5]: 8 mg/kg
[Cl][Pt]1([Cl])([Cl])([Cl])[NH]C2CCCCC2[NH]1 (stereo not drawn) [trans (d, l), (d,l)-Tetrachloro-trans-1,2-cyclohexanediamine platinum (IV)] | 0/10 | -1.2 | 180 | 0/10 | -1.5 | 274 | 3/10 | 178 | 0/10 | -5.9 | 89 | 1/10 | -0.8 | 139 | 4/10 | -1.2 | 451 | 0/10 | -4.0 | 236 | 60 Day Survivors/Total ([1]; 1 mg/kg/dose): 0/10; Body Weight Difference ([1]; 1 mg/kg/dose): -0.8 Grams; Median % T/C ([1]; 1 mg/kg/dose): 144%; Body Weight Difference ([1]; 8 mg/kg/dose): -3.2 Grams; 60 Day Survivors/Total ([2]; 1 mg/kg/dose): 0/10; Body Weight Difference ([2]; 1 mg/kg/dose): -0.6 Grams; Median % T/C ([2]; 1 mg/kg/dose): 129%; 60 Day Survivors/Total ([2]; 16 mg/kg/dose): 0/10; Body Weight Difference ([2]; 16 mg/kg/dose): -6.3 Grams; Median % T/C ([2]; 16 mg/kg/dose): Toxic; Optimal Dose [3]: 2.5 mg/kg/inj; Total number of long-term survivors [4]: 27; Mouse Optimal Dose (highest tolerated dose in at least 2 of 3 experiments) [5]: 8 mg/kg

From patent US4599352A, “Antineoplastic platinum (IV) complexes and compositions” (priority 1984, dated 1986)
